Entries after “also recorded” stand apart in the source; their conditions may differ.
Tests used:
143B (human OS) cells = test: Proliferation assay (WST-1), OS cells; assay type: cell-based; conditions: 100 μM CADD522, 72 h, WST-1, relative to control
Description: (§1) Cell lines. 143B (human OS) and TC71 (human ES) cells were obtained from ATCC. Cells were authenticated by STR profiling and were cultured in DMEM/F-12 (Thermo Fisher Scientific) or IMDM (Thermo Fisher Scientific) containing 1% (v/v) insulin transferrin selenium, 10% (v/v) FBS and 1% (v/v) penicillin/streptomycin. Medium was refreshed every other day and cells were maintained at 37° C. in 5% CO2. For the animal experiments 143B and TC71 cells were modified by transfecting with the GFP-luciferase tagged LVP02 lentivirus (AMSBIO). Adding the luciferase tag had no effect on cell phenotype.
(§2) Proliferation assays. 1×10^3 cells in 100 μL of medium were seeded per well into 96-well plates. PBS was added to outer wells to prevent evaporation. All plates were incubated for 24 h at 37° C. in 5% CO2. 100 nM, 1 μM, 10 μM and 100 μM CADD522 were added from a stock concentration of 10 mM in DMSO and incubated for 72 h before measuring cell viability/proliferation using the WST-1 assay kit (Abcam) following manufacturer's instructions. Data was presented as relative to the control (appearing as −11 on x-axis), which is set to 100% viability. Experiments were performed in quadruplicates in three independent experiments.
(§3) Statistics. […] Data was tested for normality by D'Agostino Pearson Omnibus test and analysed in GraphPad Prism v9 with p=<0.05 regarded as significant. […]

TC71 (human ES) cells = test: Proliferation assay (WST-1), ES cells; assay type: cell-based; conditions: 100 μM CADD522, 72 h, WST-1, relative to control
Description: as §1, §2, §3

143B+GFP-Luc (OS) cells = test: PBC xenograft mouse model, OS; assay type: in vivo, BALB/c nude mice
Description: (§4) Mice. The University of Sheffield Animal Welfare and Ethics Committee approved the animal experiments. Experiments were performed under licence in accordance with the UK Home Office guidelines and under the Animals (Scientific Procedures) Act 1986. Six- to seven-week-old female BALB/c nude mice (Charles River Laboratories) were acclimatised for one week prior to in vivo study. Mice were housed with a 12 h light-dark cycle at 22° C. and had free access to 2018 Teklad global 18% protein rodent diet containing 1.01% calcium (Harlan) and water. Mice were anesthetised by isoflurane inhalation before implantation with 2.5×10^5 143B+GFP-Luc (OS) cells or 5×10^5 TC71+GFP-Luc (ES) cells in 20 μl PBS onto the tibial surface. Mice were matched by weight and initial IVIS signal and then randomly divided into groups (n=8 mice/group). CADD522 treatment commenced the day after tumours became visible. Mice received either vehicle control (PBS and DMSO) or CADD522 (25 mg/kg) by IP injection five times per week. Tumours were measured by callipers throughout the study twice per week blinded. Two perpendicular measurements were taken and volume calculated by the formula V=0.523×L×(S)^2 where L and S refer to the largest and smallest measurement. Mice were treated until the palpable tumour reached the permissible 12 mm diameter limit. At the end of the procedure ex vivo imaging of mouse internal organs was performed to detect metastasis. Prior to killing, mice were injected subcutaneously with 150 mg/kg XenoLight D-Luciferin substrate (Perkin Elmer) that was left to disperse for a minimum of 5 m. Dissected organs were then imaged using the IVIS Lumina II. Mice legs and lungs were dissected and fixed in 10% formalin for further analysis.
Micro-CT. Fixed tibiae were scanned using a SkyScan 1172 desktop micro-CT machine (Bruker) at 8 um resolution with the X-ray source operating at 50 kV, 200 uA and using a 0.5 mm aluminium filter. Images were captured every 0.7°. Scanned images were reconstructed using Skyscan NRecon software v1.6.9 (Bruker). The region of interest (ROI) for the total bone volume was selected to include both the tibia and fibula and was determined at the top of the bone as soon as the tibia enters the image to the lower point where the tibia and fibula meet.
Histology. Bones were fixed in neutral buffered formalin for 48 h after which they were transferred to 70% ethanol. Bones were then decalcified in 10% EDTA, embedded in paraffin and 5 μm sections produced. Sections were de-waxed in xylene, rehydrated through graded alcohols and stained in haematoxylin (VWR) and eosin. The sections were dehydrated through graded alcohols and coverslips were mounted in DPX and imaged using Olympus BX51 microscope (Olympus Life Sciences) and Pannoramic 250 Flash III slide scanner (3[…]).
Statistics. For statistical tests p=<0.05 was considered as statistically significant. Proliferation data is reported for each experimental repeat (n=3). Data was tested for normality by D'Agostino Pearson Omnibus test and analysed in GraphPad Prism v9 with p=<0.05 regarded as significant. A one-way ANOVA was used to identify any differences in proliferation across the concentration range tested compared to the untreated control. A post-hoc Dunnett's multiple comparison was then used to determine which concentration impacted proliferation compared to the untreated control. […]

[1] = Observed toxicity in treated PBC model mice; assay type: in vivo; conditions: 25 mg/kg over the study period
Description: as §4, with “At the end of the procedure ex vivo imaging of mouse internal organs was performed to detect metastasis. Prior to killing, mice were injected subcutaneously with 150 mg/kg XenoLight D-Luciferin substrate (Perkin Elmer) that was left to disperse for a minimum of 5 m. Dissected organs were then imaged using the IVIS Lumina II. Mice legs and lungs were dissected and fixed in 10% formalin for further analysis.” left out

TC71+GFP-Luc (ES) cells = test: PBC xenograft mouse model, ES; assay type: in vivo, BALB/c nude mice
Description: as §4, with “Mice legs and lungs were dissected and fixed in 10% formalin for further analysis.” left out
Micro-CT. […] The region of interest (ROI) for the total bone volume was selected to include both the tibia and fibula and was determined at the top of the bone as soon as the tibia enters the image to the lower point where the tibia and fibula meet. […]
as §3

[2] = system: osteosarcoma and Ewing sarcoma; conditions: PMID: 20068084; cited from earlier work
osteosarcoma = conditions: at 18 weeks of treatment, PMID: 33580363; cited from earlier work
[3] = 25 mg/kg IP, compared to controls

Molecule: O=C(O)C1C2C=CC(C2)C1C(=O)Nc1ccc(Cl)c(Cl)c1 (stereo not shown) [CADD522, 3-(N-(3,4-dichlorophenyl)carbamoyl)-5-norbornene-2-carboxylic acid]
- OS cell viability/proliferation (143B (human OS) cells): cytotoxic effect; also recorded: significantly reduced cell proliferation
- ES cell viability/proliferation (TC71 (human ES) cells): cytotoxic; also recorded: showed cell proliferation differences
- metastasis-free survival, OS mice (143B+GFP-Luc (OS) cells; 25 mg/kg IP five times per week vs control, p=0.0091): significantly increased metastasis-free survival
- overall survival, OS mice (143B+GFP-Luc (OS) cells; 25 mg/kg IP five times per week vs control, p=0.093): Half of OS mice receiving CADD522 treatment survived longer than the control group
- OS tumour volume over time (143B+GFP-Luc (OS) cells; 25 mg/kg IP five times per week vs vehicle control, p=0.0072): significantly reduced tumour volume
- histology (H&E) of OS tumours at endpoint (143B+GFP-Luc (OS) cells; [3]): more densely packed, generally more vascularised and more organised (arranged in chords)
- bone volume difference, tumour bearing leg vs contralateral (CL) leg (micro-CT) (143B+GFP-Luc (OS) cells; OS mice, 25 mg/kg IP, in control mice difference significant (p=0.02)): no longer statistically significant
- observed toxicity in the animals [1]: no observed toxicity
- overall survival, ES mice (TC71+GFP-Luc (ES) cells; 25 mg/kg IP five times per week vs control, p=0.043): Significantly increased overall survival
- ES tumour volume over time (TC71+GFP-Luc (ES) cells; 25 mg/kg IP five times per week vs vehicle control, p=0.0003): significantly reduced tumour volume
- histology (H&E) of ES tumours at endpoint (TC71+GFP-Luc (ES) cells; [3]): generally more vascularised

Molecule: C/C(=C\c1csc(C)n1)[C@@H]1C[C@@H]2O[C@]2(C)CCC[C@H](C)[C@H](O)[C@@H](C)C(=O)C(C)(C)[C@@H](O)CC(=O)N1 [ixabepilone]
- clinical response [2]: no partial or complete responses were observed

Molecule: pembrolizumab
- clinical benefit (osteosarcoma): no patients had clinical benefit
